Values after ≈ are worked out from the molar mass of the structure shown. Where two headings read alike, the source gives them in different places.
Legend:
Assay type in all cases: cell-based
[1] = Cytotoxicity to HepG2.2.15 cells (MTT method); conditions: human, HepG2.2.15 cells (HBV-transgenic human hepatoma cells), 50% death concentration, eighth day
Source text: (§1) Hepatitis B virus (HBV) transgenic human hepatoma carcinoma cell, HepG2.2.15 cell line, can secrete hepatitis B virus particles (containing antigen and DNA) into supernatant when being cultured.
(§2) Under action of antiviral drugs, the contents of HBsAg, HBeAg and viral DNA secreted from cells into the supernatant were detected and are compared with the contents of control groups without drugs, so that the antiviral activity of the compounds of the present invention can be measured as well as the cytotoxic effect of compounds of the present invention. The value concentration of the compounds of the present invention which caused 50% of cells dead and was measured with MTT method was CC50; and the value concentration of the compounds of the present invention which inhibited the secretion of HBsAg and HBeAg detected by ELISA method and inhibited 50% of viral DNA replication detected by fluorescent quantification PCR method was IC50.
(§3) HepG2.2.15 cells were inoculated on a 96-well plate, and the compounds of the present invention were added next day. The medium and the compound solutions of the same concentration were renewed periodically. The culture supernatants were collected on the eighth day to be detected. MTT was added to the cells on the 96-well plate, and MTT dissolving liquid was added after 4 hours to be reacted overnight. OD570 was measured next day on microplate reader. And the cytotoxicity of the compounds of the present invention to the HepG2.2.15 cells, the effect of the compounds of the present invention on the growth of the cells, and the concentration of the compound of the present invention (CC50) causing 50% of the cells dead were estimated according to the OD values.

hepatitis B virus (HBV) = assay: HBV-DNA replication in HepG2.2.15 culture supernatant (fluorescent quantification PCR); conditions: for IC50: Hepatitis B virus; for DNA replication IC89: ICX: concentration with 89% inhibition of HBV-DNA replication; for DNA replication IC12: ICX: concentration with 12% inhibition of HBV-DNA replication
Source text: as §1, §2, §3
A suitable amount of culture supernatant was added into a same volume of virus extract solution, and was boiled after mixed uniformly, then centrifuged at 10000 rpm for 5 min under room temperature. A suitable amount of supernatant was collected for PCR amplification. Five HBV-DNA standard samples were used to set a standard curve. According to the obtained viral DNA replication value, the inhibition rates of HBV-DNA replication of the compound of the present invention at different concentrations were calculated, and then the half inhibition rates of the compounds were calculated to obtain IC50. For the samples that can not be calculated for IC50 value, they can be represented by ICX and given the corresponding concentration values.

influenza A virus = assay: Anti influenza A virus activity, cytopathic effect (CPE) in MDCK cells
Source text: (§4) 4. Screening of the samples for the anti-influenza virus A and B activity: MDCK (canine kidney) cells were used as the virus host to test the inhibition effect of the compounds of the present invention on the cytopathic effect (CPE) of the cells caused by the virus.

[2] = tested on: MDCK (canine kidney) cells; assay: 50% toxicity concentration in the anti-influenza screen (MDCK cells); conditions: 50% toxity concentration, Table 3-2 (influenza screen, MDCK cells)
Source text: as §4

[3] = HepG2.2.15 supernatant, eighth day, fluorescent quantification PCR, read-out: DNA replication IC50
[4] = HepG2.2.15, read-out: DNA replication IC50

SMILES | CC50 [1] | IC50 (hepatitis B virus (HBV); [3]) | other results
CC(C)Cc1cnc(-c2nccs2)o1 [Compound C208] | > 100 µM | 35.8 µM | 
c1ccc(-c2cnc(-c3cccs3)[nH]2)cc1 [Compound C226] | 53.2 µM | 2.3 µM | 
c1ccc(-c2cnc(-c3cccs3)o2)cc1 [Compound C227] | > 100 µM | 1.4 µM | 
c1ccc(-c2cnc(-c3cccs3)s2)cc1 [Compound C243] | 84.5 µM | 0.41 µM | 
CCOC(=O)c1nc(-c2cccs2)[nH]c1C1CC1 [Compound C262] | 34.4 µM | 4.3 µM | 
CCOC(=O)c1nc(-c2nccs2)[nH]c1C1CC1 [Compound C263-1] | > 100 µM | 3.7 µM | 
CC(C)Cc1sc(-c2nccs2)nc1C(N)=O [Compound C267] |  |  | DNA replication IC89 (hepatitis B virus (HBV); IC50 not calculable): IC89 = 33 uM
CCOC(=O)c1nc(-c2nccs2)[nH]c1C1CCC1 [Compound C277] | > 100 µM | 3.1 µM | 
CCCCc1[nH]c(-c2nccs2)nc1C(=O)OCC [Compound C279-1] | 94.7 µM |  | DNA replication IC40 (hepatitis B virus (HBV); ICX: concentration with 40% inhibition of HBV-DNA replication, IC50 not calculable): IC40 = 12.4 uM
CCCCc1oc(-c2cccs2)nc1C(=O)OCC [Compound C279-2] | 71.8 µM | 51.9 µM | 
CCOC(=O)c1nc(-c2cccs2)oc1CC(C)C [Compound C279-3] | > 100 µM |  | 
CCOC(=O)c1nc(-c2nccs2)oc1CC(C)C [Compound C280-1] | > 100 µM |  | 
CCCCc1oc(-c2nccs2)nc1C(=O)OCC [Compound C280-2] | > 100 µM |  | DNA replication IC26 (hepatitis B virus (HBV); ICX: concentration with 26% inhibition of HBV-DNA replication, IC50 not calculable): IC26 = 0.41 uM
CNC(=O)c1nc(-c2nccs2)sc1CC(C)C [Compound C281] |  |  | DNA replication IC94 (hepatitis B virus (HBV); ICX: concentration with 94% inhibition of HBV-DNA replication, IC50 not calculable): IC94 = 33 uM
CCOC(=O)c1nc(-c2nccs2)[nH]c1C1CCCC1 [Compound C291] | > 100 µM | 5.5 µM | 
CCOC(=O)c1nc(-c2ccc(C)s2)[nH]c1CC(C)C [Compound C292] | 139 µM | 4.65 µM | 
CCOC(=O)c1nc(-c2ccc(C)s2)oc1CC(C)C [Compound C293] | 80 µM | 126 µM | 
CCCCc1sc(-c2cccs2)nc1C(=O)OCC [Compound C295-1] | 50 µM | 11.7 µM | 
CC(C)Cc1sc(-c2nccs2)nc1C(=O)N(C)C [Compound C295-3] |  |  | DNA replication IC12 (hepatitis B virus (HBV); IC50 not calculable): IC12 = 1.23 uM

SMILES | CC50 [1] | IC50 (hepatitis B virus (HBV); [3]) | other results
CCCCc1sc(-c2nccs2)nc1C(=O)OCC [Compound C296-2] | > 100 µM |  | DNA replication IC12 (hepatitis B virus (HBV); IC50 not calculable): IC12 = 0.41 uM
CCOC(=O)c1nc(-c2cscn2)sc1CC(C)C [Compound C296-3] | 116 µM | 0.14 µM | 
CCOC(=O)c1nc(-c2cccs2)[nH]c1C1CCCCC1 [Compound C304] | > 100 µM | 4.5 µM | 
CCOC(=O)c1nc(-c2cccs2)oc1C1CCCCC1 [Compound C305-1] | > 100 µM | 2.6 µM | 
CCOC(=O)c1nc(-c2nccs2)[nH]c1C1CCCCC1 [Compound C305-2] | > 100 µM | 4.1 µM | 
CCOC(=O)c1nc(-c2nccs2)oc1C1CCCCC1 [Compound C306] | > 100 µM | 0.8 µM | 
CCOC(=O)c1nc(-c2ccc(CC)s2)oc1CC(C)C [Compound C307] | 80 µM | 22.5 µM | 
CCOC(=O)c1nc(-c2ccc(C)s2)sc1CC(C)C [Compound C309] | > 100 µM |  | DNA replication IC14.2 (hepatitis B virus (HBV); ICX: concentration with 14.2% inhibition of HBV-DNA replication, IC50 not calculable): IC14.2 = 0.39 uM
CCOC(=O)c1nc(-c2ncc(C)s2)sc1CC(C)C [Compound C310] | > 100 µM | 0.14 µM | 
CCOC(=O)c1nc(-c2cc3ccccc3[nH]2)[nH]c1CC(C)C [Compound C311-2] | 3.5 µM | 0.07 µM | 
CCCCc1oc(-c2ccc(CCC)s2)nc1C(=O)OCC [Compound C321-1] | 80 µM | 5.86 µM | 
CCOC(=O)c1nc(-c2cccs2)sc1C1CCCCC1 [Compound C321-2] | 28.2 µM |  | IC50 (hepatitis B virus (HBV); [4]): 1.67 µM
CCCc1ccc(-c2nc(C(=O)OCC)c(CC(C)C)o2)s1 [Compound C321-3] | 80 µM |  | DNA replication IC27 (hepatitis B virus (HBV); ICX: concentration with 27% inhibition of HBV-DNA replication, IC50 not calculable): IC27 = 1.23 uM
CCOC(=O)c1nc(-c2nc(CC)cs2)sc1CC(C)C [Compound C324-2] | > 100 µM | 0.14 µM | 
CCOC(=O)c1nc(-c2cccs2)[nH]c1/C=C/c1ccccc1 [Compound C324] | 61 µM |  | 
CCOC(=O)c1nc(-c2cc3ccccc3[nH]2)sc1CC(C)C [Compound C328-2] | 21.7 µM |  | 
CCOC(=O)c1nc(-c2cc3ccccc3s2)[nH]c1CC(C)C [Compound C328] | > 7.5 µM | 0.19 µM | 
CCOC(=O)c1nc(-c2cc3ccccc3s2)oc1CC(C)C [Compound C329] | > 100 µM |  | DNA replication IC41.8 (hepatitis B virus (HBV); ICX: concentration with 41.8% inhibition of HBV-DNA replication, IC50 not calculable): IC41.8 = 4 uM
CCCc1ccc(-c2nc(C(=O)OCC)c(CC(C)C)s2)s1 [Compound C337] | 60 µM |  | 

SMILES | CC50 [1] | IC50 (hepatitis B virus (HBV); [3]) | other results
CC(C)Cc1sc(-c2nccs2)nc1C(=O)Nc1ccccc1 [Compound C343] |  |  | DNA replication IC19 (hepatitis B virus (HBV); ICX: concentration with 19% inhibition of HBV-DNA replication, IC50 not calculable): IC19 = 1.23 uM
CCOC(=O)c1nc(-c2cc3ccccc3s2)sc1CC(C)C [Compound C345] | > 88.1 µM |  | IC50 (hepatitis B virus (HBV); [4]): 1.32 µM
CCOc1cnc(-c2oc(-c3cccs3)nc2C(=O)c2ccccc2)o1 [Compound C352] | > 33.3 µM | 8.3 µM | 
CC(C)Cc1sc(-c2nccs2)nc1C(=O)NCc1ccccc1 [Compound C357] | 80 µM |  | DNA replication IC89 (hepatitis B virus (HBV); IC50 not calculable): IC89 = 33 uM
CCOC(=O)c1nc(-c2nc3cc(OC)ccc3s2)sc1CC(C)C [Compound C376] | 127 µM | 23 µM | 
NC(=O)c1ncn([C@@H]2O[C@H](CO)[C@@H](O)[C@H]2O)n1 [Ribavirin, reference compound] |  |  | IC50 (influenza A virus): 3.73 mg/L (≈ 15.3 µM)
Cc1oc(-c2csc([C@@H](NC(=O)CC3=CCCC3)C(C)C)n2)nc1C(=O)O [Wang389.47] |  |  | TC50 [2]: 480.75 mg/L (≈ 1230 µM); IC50 (influenza A virus): 29 mg/L (≈ 74.5 µM)
COC(=O)c1nc(-c2csc([C@@H](NC(=O)C3CCCC3)C(C)C)n2)oc1C [Wang391.49-1] |  |  | TC50 [2]: 250 mg/L (≈ 639 µM); IC50 (influenza A virus): 0.56 mg/L (≈ 1.43 µM)
COC(=O)c1nc(-c2csc([C@@H](NC(=O)CC=C(C)C)C(C)C)n2)oc1C [Wang391.49-2] |  |  | TC50 [2]: >1000 mg/L; IC50 (influenza A virus): > 192 mg/L
COc1ccccc1C(=O)N[C@H](c1nc(-c2nc(C(=O)O)c(C)o2)cs1)C(C)C [Wang415.46] |  |  | TC50 [2]: 333.33 mg/L (≈ 802 µM); IC50 (influenza A virus): 29 mg/L (≈ 69.8 µM)
COC(=O)c1nc(-c2csc([C@@H](NC(=O)c3ccccc3OC)C(C)C)n2)oc1C [Wang429.49] |  |  | TC50 [2]: 333.33 mg/L (≈ 776 µM); IC50 (influenza A virus): 47.7 mg/L (≈ 111 µM)
CCC(=O)N[C@H](c1nc(-c2nc(C(=O)N[C@@H](C)c3nc(C(=O)OC)co3)c(C)o2)cs1)C(C)C [Wang489.55] |  |  | TC50 [2]: 577.35 mg/L (≈ 1180 µM); IC50 (influenza A virus): 160 mg/L (≈ 327 µM)
COC(=O)c1coc([C@H](C)NC(=O)c2nc(-c3csc([C@@H](NC(=O)CC=C(C)C)C(C)C)n3)oc2C)n1 [Wang529.61-2] |  |  | TC50 [2]: 577.35 mg/L (≈ 1090 µM); IC50 (influenza A virus): 111 mg/L (≈ 210 µM)
C=CCC(=O)N[C@H](c1nc(-c2nc(C(=O)OC)c(C)o2)cs1)C(C)C [Wang 363.43-2] |  |  | TC50 [2]: 500 mg/L (≈ 1380 µM); IC50 (influenza A virus): 0.42 mg/L (≈ 1.16 µM)
COC(=O)c1nc(-c2csc([C@@H](NC(=O)C3CCC3)C(C)C)n2)oc1C [Wang 377.46-1] |  |  | TC50 [2]: 500 mg/L (≈ 1320 µM); IC50 (influenza A virus): 111 mg/L (≈ 294 µM)
C=CCCC(=O)N[C@H](c1nc(-c2nc(C(=O)OC)c(C)o2)cs1)C(C)C [Wang 377.46-2] |  |  | TC50 [2]: 577.35 mg/L (≈ 1530 µM); IC50 (influenza A virus): 259 mg/L (≈ 685 µM)
COC(=O)c1nc(-c2csc([C@@H](NC(=O)CC3=CCCC3)C(C)C)n2)oc1C [Wang 403.50] |  |  | TC50 [2]: 333.33 mg/L (≈ 826 µM); IC50 (influenza A virus): 64.2 mg/L (≈ 159 µM)
COC(=O)c1nc(-c2csc([C@@H](NC(=O)CC3=CCCCC3)C(C)C)n2)oc1C [Wang 417.52] |  |  | TC50 [2]: 231.12 mg/L (≈ 554 µM); IC50 (influenza A virus): 68.7 mg/L (≈ 165 µM)
C=CCC(=O)N[C@H](c1nc(-c2nc(C(=O)N[C@@H](C)c3nc(C(=O)OC)co3)c(C)o2)cs1)C(C)C [Wang 501.56-2] |  |  | TC50 [2]: 577.35 mg/L (≈ 1150 µM); IC50 (influenza A virus): 68.7 mg/L (≈ 137 µM)
